Assay results: patent US20220023281A1, “HETEROCYCLIC SPIRO-COMPOUNDS AS AM2 RECEPTOR INHIBITORS” (THE UNIVERSITY OF SHEFFIELD, priority 2018, published 2022)

molecular target: T1, AM2 receptor-expressing cells (1321N1 cells transfected with CALCRL+RAMP3) (Homo sapiens, UniProt O60896+Q16602); test: AM2 receptor inhibition, LANCE cAMP agonist-antagonist competition assay (AM2 D2 protocol); type: cell-based; settings: inhibition of AM induced cAMP in 1321N1 cells expressing CALCRL+RAMP3; read-out: AM2 D2 protocol: pIC50 (converted)
T1 construct: host or cells: 1321N1 cells
T1 sequence (Q16602 23-461): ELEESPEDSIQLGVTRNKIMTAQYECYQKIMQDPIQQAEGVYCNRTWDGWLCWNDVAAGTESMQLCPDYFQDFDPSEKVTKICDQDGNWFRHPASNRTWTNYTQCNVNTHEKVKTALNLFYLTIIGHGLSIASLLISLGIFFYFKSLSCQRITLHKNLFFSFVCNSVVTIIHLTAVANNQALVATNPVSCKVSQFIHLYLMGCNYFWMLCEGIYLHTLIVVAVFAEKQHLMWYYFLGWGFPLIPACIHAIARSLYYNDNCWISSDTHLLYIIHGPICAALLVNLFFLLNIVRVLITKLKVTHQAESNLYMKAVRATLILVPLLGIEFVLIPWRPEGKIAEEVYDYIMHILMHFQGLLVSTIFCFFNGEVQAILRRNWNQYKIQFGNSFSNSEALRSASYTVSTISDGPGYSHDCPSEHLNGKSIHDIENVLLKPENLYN
T1 sequence (O60896 24-148): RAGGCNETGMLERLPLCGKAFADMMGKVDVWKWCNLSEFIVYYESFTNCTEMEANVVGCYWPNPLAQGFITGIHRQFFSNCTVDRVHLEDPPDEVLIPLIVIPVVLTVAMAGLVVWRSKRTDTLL
Procedure: Compounds were assessed for their ability to inhibit ligand-induced elevations of cAMP, using the Perkin Elmer LANCE cAMP assay using commercially-available cells expressing a specific receptor of interest using the following general procedure:
Compounds were prepared in dimethyl sulfoxide (DMSO—99.9% pure) (Sigma Aldrich, Cat #: D4540) added to powder stocks to produce a 20 mM solution (100% DMSO) that was sonicated at 37° C. for 10 minutes to fully dissolve the compounds. The 20 mM stocks were diluted further in DMSO to produce a 2 mM solution that was sonicated at 37° C. for 10 minutes. 2 mM stocks were dissolved in assay/stimulation buffer to produce a 400 μM solution that was sonicated at 37° C. for 10 minutes for all cAMP assays. All stocks were stored at −20° C. Then serial dilution (Dilution factor: 10) was performed to achieve the desire experimental concentrations.
Competition assays were performed according to the manufactures instructions using LANCE® TR-FRET cAMP assay kit (Perkin Elmer, Cat #: AD0264). Serial dilutions (3 μl/well) of the molecules were plated in a 384-well OptiPlate (Perkin Elmer, Cat #: 6007299) in duplicates. Appropriate controls (100% stimulation: Forskolin and 0% stimulation: Vehicle control) (6 μl/well) were included in each plate for data normalization. Following the compound addition, 6 μl of G-protein coupled receptor overexpressing cells/Alexa Fluor antibody solution (1:100 dilution) was added in each well at a desired density of 2500 cells/well. The overexpressing cell lines were purchased from DiscoveRx, Birmingham, UK. After spinning the plate at 1000 rpm for 1 minute and vortexing briefly, the cells were pre-incubated with the compounds for 30 minutes at room temperature (covered). Then 3 μl of the equivalent peptide ligand (EC50 dose) was added to all the wells except vehicle and forskolin controls. The plate were then spun down at 1000 rpm for 1 minute and once finished they were vortexed briefly and covered. Cells were stimulated in the presence of the ligands for 15 minutes at room temperature. After stimulation 12 μl of detection mix (Europium-Chelate streptavidin/biotinylated cAMP tracer solution) was added to all wells and incubated for 60 minutes at room temperature. The plate was then read on the Enspire multimode Plate reader (Perkin Elmer), at; 320/340 nm excitation and 615/665 nm emission was recorded.
Assay/Stimulation Buffer (30 mL)—pH 7.4 • 28 mL Hank's Balanced salt solution (+MgCl2, +CaCl2))—(Thermo Fisher Cat #:14170112) • 150 μl HEPES (1M)—(Thermo Fisher Cat #:15630080) • 400 μl Stabilizer (DTPA) Purified BSA (7.5%)—(Perkin Elmer, Cat #: CR84-100) • 60 μl IBMX (250 mM)—(Sigma Aldrich, Cat #: 15879)
The ability of a compound to inhibit the AM induced cAMP activation in AM2 receptor-expressing cells (1321N1 cells transfected with CALCRL+RAMP3, sourced from DiscoverX catalogue number 95-0169C6) was assessed using the protocol above.

| Compound | IC50 [nM] |
| --- | --- |
| CC1(C(=O)N(CC(=O)Nc2ccc3c(c2)C[C@@]2(C3)C(=O)Nc3ncccc32)[C@H]2CCCNC2)CCC1 [Example 8, 1-Methyl-N-(2-oxo-2-(((R)-2′-oxo-1,1′,2′,3-tetrahydrospiro[indene-2,3′-pyrrolo[2,3-b]pyridin]-5-yl)amino)ethyl)-N—((S)-piperidin-3-yl)cyclobutanecarboxamide] | 145 |
| CC(C)(C)C(=O)N(CC(=O)Nc1ccc2c(c1)C[C@@]1(C2)C(=O)Nc2ncccc21)[C@@H]1CCCNC1 [Example 3, N-(2-Oxo-2-(((R)-2′-oxo-1,1′,2′,3-tetrahydrospiro[indene-2,3′-pyrrolo[2,3-b]pyridin]-5-yl)amino)ethyl)-N—((R)-piperidin-3-yl)pivalamide] | 741 |
| CC(=O)N1CCC(C)(C(=O)N(CC(=O)Nc2ccc3c(c2)C[C@@]2(C3)C(=O)Nc3ncccc32)[C@H]2CCCNC2)CC1 [Example 16, 1-Acetyl-4-methyl-N-(2-oxo-2-(((R)-2′-oxo-1,1′,2′,3-tetrahydrospiro[indene-2,3′-pyrrolo[2,3-b]pyridin]-5-yl)amino)ethyl)-N—((S)-piperidin-3-yl)piperidine-4-carboxamide] | 112 |
| CC1(C(=O)N(CC(=O)Nc2ccc3c(c2)C[C@@]2(C3)C(=O)Nc3ncccc32)[C@H]2CCCNC2)CCNCC1 [Example 15, 4-Methyl-N-(2-oxo-2-(((R)-2′-oxo-1,1′,2′,3-tetrahydrospiro[indene-2,3′-pyrrolo[2,3-b]pyridin]-5-yl)amino)ethyl)-N—((S)-piperidin-3-yl)piperidine-4-carboxamide] | 50.1 |
| COC(C)(C)C(=O)N(CC(=O)Nc1ccc2c(c1)C[C@@]1(C2)C(=O)Nc2ncccc21)[C@H]1CCCNC1 [Example 11, 2-Methoxy-2-methyl-N-(2-oxo-2-(((R)-2′-oxo-1,1′,2′,3-tetrahydrospiro[indene-2,3′-pyrrolo[2,3-b]pyridin]-5-yl)amino)ethyl)-N—((S)-piperidin-3-yl)propenamide] | 85.1 |
| O=C(CN(C(=O)C1(C(F)(F)F)CCC1)[C@H]1CCCNC1)Nc1ccc2c(c1)C[C@@]1(C2)C(=O)Nc2ncccc21 [Example 12, N-(2-Oxo-2-(((R)-2′-oxo-1,1′,2′,3-tetrahydrospiro[indene-2,3′-pyrrolo[2,3-b]pyridin]-5-yl)amino)ethyl)-N—((S)-piperidin-3-yl)-1-(trifluoromethyl)cyclobutanecarboxamide] | 263 |
| CNC(=O)N1CCC(C)(C(=O)N(CC(=O)Nc2ccc3c(c2)C[C@@]2(C3)C(=O)Nc3ncccc32)[C@H]2CCCNC2)CC1 [Example 20, N1,4-Dimethyl-N4-[2-oxo-2-[[(3R)-2-oxospiro[1H-pyrrolo[2,3-b]pyridine-3,2′-indane]-5′-yl]amino]ethyl]-N4-[(3S)-3-piperidyl]piperidine-1,4-dicarboxamide] | 56.2 |
| O=C(CN(C(=O)C12CC(C1)C2)[C@H]1CCCNC1)Nc1ccc2c(c1)C[C@@]1(C2)C(=O)Nc2ncccc21 [Example 4, N-(2-Oxo-2-(((R)-2′-oxo-1,1′,2′,3-tetrahydrospiro[indene-2,3′-pyrrolo [2,3-b]pyridin]-5-yl)amino)ethyl)-N—((S)-piperidin-3-yl)bicyclo[1.1.1]pentane-1-carboxamide] | 251 |

More lines, now with the values ahead:

| IC50 [nM] | Compound |
| --- | --- |
| 316 | CC(C)(C)C(=O)N(CC(=O)Nc1ccc2c(c1)C[C@@]1(C2)C(=O)Nc2ncccc21)C1CCC2CCC1N2 (single isomer, unassigned) [Example 31A] |
| 245 | O=C(CN(C(=O)N1CCCC1)[C@H]1CCCNC1)Nc1ccc2c(c1)C[C@@]1(C2)C(=O)Nc2ncccc21 [Example 22, N-(2-Oxo-2-(((R)-2′-oxo-1,1′,2′,3-tetrahydrospiro[indene-2,3′-pyrrolo [2,3-b]pyridin]-5-yl)amino)ethyl)-N—((S)-piperidin-3-yl)pyrrolidine-1-carboxamide] |
| 2880 | CC(=O)N1CCN(C(=O)N(CC(=O)Nc2ccc3c(c2)C[C@@]2(C3)C(=O)Nc3ncccc32)[C@H]2CCCNC2)CC1 [Example 23, 4-Acetyl-N-(2-oxo-2-(((R)-2′-oxo-1,1′,2′,3-tetrahydrospiro[indene-2,3′-pyrrolo[2,3-b]pyridin]-5-yl)amino)ethyl)-N—((S)-piperidin-3-yl)piperazine-1-carboxamide] |
| 186 | C[C@H]1CC[C@H](N(CC(=O)Nc2ccc3c(c2)C[C@@]2(C3)C(=O)Nc3ncccc32)C(=O)C(C)(C)C)CN1 (relative stereo) [Example 28, N-((3S*,6S*)-6-Methylpiperidin-3-yl)-N-(2-oxo-2-(((R)-2′-oxo-1,1′,2′,3-tetrahydrospiro[indene-3′-pyrrolo[2,3-b]pyridin]-5-yl)amino)ethyl)pivalamide] |
| 132 | CC(C)(C)C(=O)N(CC(=O)Nc1ccc2c(c1)CC1(C2)C(=O)Nc2ncccc21)[C@H]1CCNC1 (stereo partly drawn) [Example 24, N-(2-Oxo-2-((2′-oxo-1,1′,2′,3-tetrahydrospiro[indene-2,3′-pyrrolo[2,3-b]pyridin]-5-yl)amino)ethyl)-N—((S)-pyrrolidin-3-yl)pivalamide] |
